Measured values reported in patent publication US20040067894A1, “Preparation having antioxidant properties” (Merck Patent GmbH, priority 2002, published 2004).

Experiment: DPPH assay (free-radical scavenging, antioxidant activity)
Type: biochemical
Settings: for AE (×10^−3): anti-free-radical efficiency, obtained from EC50 and TEC50; for TEC50: reaction time necessary to achieve the EC50 value
Protocol: 2,2-Diphenyl-1-picrylhydrazyl is a free radical which is stable in solution. The unpaired electron results in a strong absorption band at 515 nm, and the solution has a dark violet color. In the presence of a free-radical scavenger, the electron is paired, the absorption disappears, and the decoloration proceeds stoichiometrically taking into account the electrons taken up. The absorbance is measured in a photometer. The anti-free-radical property of the substance to be tested is determined by measuring the concentration at which 50% of the 2,2-diphenyl-1-picrylhydrazyl employed has reacted with the free-radical scavenger. This concentration is expressed as EC50, a value which can be considered to be a property of the substance under the given measurement conditions. The substance investigated is compared with a standard (for example tocopherol). The EC50 value here is a measure of the capacity of the respective compound to scavenge free radicals. The lower the EC50 value, the higher the capacity to scavenge free radicals.
A further important aspect for the action of the antioxidants is the time in which this EC50 value is reached. This time, measured in minutes, gives the TEC50 value, which allows a conclusion to be drawn on the rate at which these antioxidants scavenge free radicals.
The antioxidant activity of the compounds according to the invention is determined compared with the activity of quercetin (3,5,7,3′,4′-pentahydroxyflavone) and other conventional antioxidants. The antioxidant activity here is taken to mean the ability to function as hydrogen or electron donor and thus to be able to scavenge free radicals. DPPH assay is used for the determination.
A stock solution of 2,2-diphenyl-1-picrylhydrazyl (DPPH) in ethanol is prepared (0.025 g/l of DPPH-free radicals). Aliquots of this solution are mixed with various concentrations of the compound to be tested. The absorbance is in each case measured at 515 nm, 25° C. and 1 cm.
The lower this value, the higher the corresponding antioxidant activity.
The reaction time necessary to achieve this value is indicated in the value TEC50 (in minutes).
The anti-free-radical efficiency (AE) is obtained from this in accordance with the following relationship: [formula]
A higher AE value here indicates a higher activity against free radicals.

Row | Compound | AE (×10^−3) | TEC50 [min]
1 | O=c1c(O)c(-c2ccc(O)c(O)c2)oc2cc(O)cc(O)c12 [3,5,7,3′,4′-pentahydroxyflavone] | 18.72 ×10^−3 | 600
2 | O=C1c2c(O)cc(O)cc2OC(c2ccc(O)c(O)c2)C1O (stereo not shown) [3,5,7,3′,4′-Pentahydroxyflavanone] | 5.53 ×10^−3 | 1200
3 | Tocopherol | 64.1 ×10^−3 | <60
4 | COc1cc(/C=C/C(=O)O)ccc1O [Ferulic acid] | 4.9 ×10^−3 | 600
5 | O=c1cc(-c2ccc(O)c(O)c2)oc2ccc(O)cc12 [6,3′,4′-Trihydroxyflavone, 6,3′,4′-trihydroxyflavone] | 46.30 ×10^−3 | 180
6 | O=C1O[C@H]([C@@H](O)CO)C(O)=C1O [Ascorbic acid] | 61.72 ×10^−3 | <60
7 | O=c1cc(-c2ccccc2)oc2cc(O)c(O)c(O)c12 [5,6,7-Trihydroxyflavone/bacalein, 5,6,7-trihydroxyflavone] | 27.78 ×10^−3 | 360
8 | O=c1cc(-c2ccc(O)c(O)c2)oc2c(O)c(O)ccc12 [7,8,3′,4′-Tetrahydroxyflavone, 7,8,3′,4′-tetrahydroxyflavone] | 18.52 ×10^−3 | 600
